Assay results from patent US12285407B2, “Bis-indolylmethane derivatives and uses thereof” (The University of The West Indies, priority 2018, dated 2025).
Values after ≈ are worked out from the molar mass of the structure shown. Where two headings read alike, the source gives them in different places.

Key:
Enterococcus faecalis = assay: Adjuvant broth microdilution (antibiotic MIC with SP-BIM at 50 μg/mL); type: cell-based; settings: antibiotic alone
Pseudomonas aeruginosa [1] = assay: Rescue concentrations of SP-BIM that reactivate antibiotic; type: cell-based; settings: Pseudomonas aeruginosa; P. aeruginosa; agent alone; read-out: MIC (single agent)
Escherichia coli O157:H7 = type: cell-based; settings: antibiotic alone, no SP-BIM
clinical strains of MRSA = assay: Kirby Bauer disc diffusion susceptibility profile; type: cell-based, Staphylococcus aureus; settings: for Zone of clearance: 35° C., 24 hours, average n=3; for Interpretive standard (resistant/susceptible): zones vs EUCAST breakpoints (Table 30)
Klebsiella pneumoniae = assay: Adjuvant broth microdilution (antibiotic MIC with SP-BIM at 50 μg/mL); type: cell-based; settings: Klebsiella pneumonia; antibiotic alone, no SP-BIM
Bacillus cereus = assay: as above; type: cell-based; settings: antibiotic alone, Table 9
Enterobacter cloacae = assay: as above; type: cell-based; settings: antibiotic alone
Pseudomonas aeruginosa [2] = assay: as above; type: cell-based; settings: antibiotic alone
MRSA = assay: as above; type: cell-based, Staphylococcus aureus; settings: antibiotic alone, Table 8 (series SP-BIMs 21-29)
Streptococcus pneumoniae = assay: as above; type: cell-based; settings: Streptococcus pneumoniae, Streptococcus pneumonia, SP-BIM at 50 μg mL^−1
[3] = test system: Streptococcus pyogenes ATCC 19615; assay: Broth microdilution MIC of SP-BIMs; type: cell-based; settings: ATCC19615, SP-BIM alone, read-out: MIC Streptococcus pyogenes ATCC 19615
[4] = test system: Corynebacterium diphtheriae ATCC 27010; assay: Broth microdilution MIC of SP-BIMs; type: cell-based; settings: ATCC27010, SP-BIM alone, read-out: MIC Corynebacterium diphtheriae ATCC 27010
[5] = test system: Staphylococcus aureus ATCC 12600; assay: Broth microdilution MIC of SP-BIMs; type: cell-based; settings: ATCC12600, SP-BIM alone, read-out: MIC Staphylococcus aureus ATCC 12600
[6] = test system: Salmonella typhimurium ATCC 14028; assay: Broth microdilution MIC of SP-BIMs; type: cell-based; settings: Salmonella enterica, read-out: MIC Salmonella tvpkimurium ATCC 14028
Procedure, shortened: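 S. typhimurium at ~10^6 CFU mL^−1 in cation-adjusted Mueller Hinton broth was exposed to twofold compound dilutions from 250 to 0.02 μg mL^−1 at 35° C. for 18 hours. Resazurin was then added, with 1 hour of shaking. MIC was the lowest concentration showing no blue-to-pink colour change.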

[7] = test system: Candida albicans ATCC 22972; assay: Broth microdilution MIC of SP-BIMs; type: cell-based; settings: ATCC22972, SP-BIM alone, read-out: MIC Candida albicans ATCC 22972
[8] = test system: Escherichia coli ATCC 35218; assay: Broth microdilution MIC of SP-BIMs; type: cell-based; settings: ATCC35218, SP-BIM alone, read-out: MIC Escherichia coli ATCC 35218
[9] = test system: Klebsiella pneumoniae ATCC 49472; assay: Broth microdilution MIC of SP-BIMs; type: cell-based; settings: ATCC49472, SP-BIM alone, read-out: MIC Klebisella pneumoniae ATCC 49472
[10] = test system: Pseudomonas aeruginosa ATCC 27853; assay: Broth microdilution MIC of SP-BIMs; type: cell-based; settings: ATCC27853, SP-BIM alone, read-out: MIC Pseudomonas aeruginosa ATCC 27853
[11] = test system: Enterococcus faecium ATCC 19434; assay: Broth microdilution MIC of SP-BIMs; type: cell-based; settings: ATCC19434, SP-BIM alone, read-out: MIC Enterococcus faecium ATCC 19434
[12] = test system: panel of ATCC reference pathogen strains; assay: Broth microdilution MIC of SP-BIMs, panel summary in text; type: cell-based
Text: Reference microorganisms used in this study included: Bacillus cereus (American Type Culture Collection (ATCC) No. 14579), Streptococcus pyogenes (ATCC No. 19615), Staphylococcus aureus (ATCC No. 12600), Enterococcus faecium (ATCC No. 19434), Corynebacterium diphtheriae (ATCC No. 27010), Escherichia coli (ATCC No. 35218), Salmonella typhimurium (ATCC No. 14028), Pseudomonas aeruginosa (ATCC No. 27853), Klebsiella pneumoniae (ATCC No. 49472), and Candida albicans (ATCC No. 22972).
Prior to each experiment, cultures were streaked onto clean BHI agar plates and incubated at 35° C. for 24 hours. Colonies of the respective cultures were selected and inoculated in phosphate buffer saline (pH 7.5) to a 0.5 McFarland turbidity standard (equivalent to 10^8 CFU mL^−1). […]
To assess the antibiotic properties of the library of SP-BIMs, the broth microdilution assay was performed in 96-well microplates according to the Clinical and Laboratory Standards Institute 2014 Guidelines (CLSI 2014). […] The MIC was recorded as the well with the lowest concentration of test compound where no color change was observed.
The antimicrobial activity of the library of substituted [bis(indol-3yl)]methanes was assessed against a panel of ATCC reference pathogen strains of clinical relevance. […]

[13] = test system: Bacillus cereus ATCC 14579; assay: Broth microdilution MIC of SP-BIMs; type: cell-based; settings: ATCC14579, SP-BIM alone, read-out: MIC Bacillus cereus ATCC 14579
[14] = read-out: MIC of Kanamvcin with SP-BIM
[15] = read-out: MIC of Vancomvcin with SP-BIM

`O=C(N[C@H](CO)[C@H](O)c1ccc([N+](=O)[O-])cc1)C(Cl)Cl` [Chloramphenicol, chloramphenicol] was tested, and the “MIC of antibiotic, No Compound” value (Enterococcus faecalis) was 250 µg/mL, the MIC (Pseudomonas aeruginosa [1]) was 250 µg/mL (≈ 774 µM) and the “MIC of antibiotic, No Compound” value (Escherichia coli O157:H7) was 8 µg/mL. The Zone of clearance (clinical strains of MRSA; MRSA strain 1594) was 18.5 mm, the “Interpretive standard (resistant/susceptible)” value (clinical strains of MRSA; MRSA strain 1594) was “S” and the Zone of clearance (clinical strains of MRSA; MRSA strain 1621) was 24.5 mm. For the same compound, the “Interpretive standard (resistant/susceptible)” value (clinical strains of MRSA; MRSA strain 1621) was “S”, the Zone of clearance (clinical strains of MRSA; MRSA strain 5455) was 22.0 mm and the “Interpretive standard (resistant/susceptible)” value (clinical strains of MRSA; MRSA strain 5455) was “S”. The Zone of clearance (clinical strains of MRSA; MRSA strain 5872) was 20.5 mm, the “Interpretive standard (resistant/susceptible)” value (clinical strains of MRSA; MRSA strain 5872) was “S” and the Zone of clearance (clinical strains of MRSA; MRSA strain 7153) was 18.0 mm. The “Interpretive standard (resistant/susceptible)” value (clinical strains of MRSA; MRSA strain 7153) was “S”, the Zone of clearance (clinical strains of MRSA; MRSA strain 7172) was 19.5 mm and the “Interpretive standard (resistant/susceptible)” value (clinical strains of MRSA; MRSA strain 7172) was “S”. The Zone of clearance (clinical strains of MRSA; MRSA strain 7698) was 16.5 mm, the “Interpretive standard (resistant/susceptible)” value (clinical strains of MRSA; MRSA strain 7698) was “S” and the Zone of clearance (clinical strains of MRSA; MRSA strain 10132) was 21.5 mm. For the same compound, the “Interpretive standard (resistant/susceptible)” value (clinical strains of MRSA; MRSA strain 10132) was “S”, the “MIC of antibiotic, No Compound” value (Klebsiella pneumoniae) was greater than 250 µg/mL and the “MIC of antibiotic, No Compound” value (Bacillus cereus) was 4 µg/mL. For the same compound, the “MIC of antibiotic, No Compound” value (Enterobacter cloacae) was 16 µg/mL, the “MIC of antibiotic, No Compound” value (Pseudomonas aeruginosa [2]) was 250 µg/mL and the “MIC of antibiotic, No Compound” value (MRSA) was less than 0.5 µg/mL.
`c1ccc(C(c2c[nH]c3ccccc23)c2c[nH]c3ccccc23)cc1` [SP-BIM 1, bis(indol-3-yl)-phenylmethane] showed an MIC (Streptococcus pneumoniae; [14]) of 125 µg/mL, an MIC (Streptococcus pneumoniae; [15]) of 1 µg/mL and an MIC [3] of 83 µg/mL. It also gave an MIC [4] of 125 µg/mL, an MIC [5] greater than 250 µg/mL and an MIC [6] of 250 µg/mL. The MIC [7] was 250 µg/mL, the MIC [8] was greater than 250 µg/mL and the MIC [9] was greater than 250 µg/mL. For the same compound, the MIC [10] was 250 µg/mL, the MIC [11] was 52 µg/mL and the “antibacterial activity” value [12] was “displayed antibacterial activity, and only against Gram-positive bacteria”. The MIC [13] was 83 µg/mL.
`c1ccc2c(C(c3ncc[nH]3)c3c[nH]c4ccccc34)c[nH]c2c1` [SP-BIM 4, [bis(indol-3-yl)imidazol-2-yl]methane] gave an MIC (Streptococcus pneumoniae; [14]) of 125 µg/mL, an MIC (Streptococcus pneumoniae; [15]) of 1 µg/mL and an MIC [3] of 104 µg/mL. For the same compound, the MIC [4] was 166 µg/mL, the MIC [5] was 166 µg/mL and the MIC [6] was 250 µg/mL. For the same compound, the MIC [7] was 250 µg/mL, the MIC [8] was greater than 250 µg/mL and the MIC [9] was greater than 250 µg/mL. For the same compound, the MIC [10] was 250 µg/mL, the MIC [11] was 104 µg/mL and the “antibacterial activity” value [12] was “displayed antibacterial activity, and only against Gram-positive bacteria”. The MIC [13] was 125 µg/mL.
